Reference: the supplement of paper PMC8960247
± gives the standard error.

How the values were obtained:
[1] = system: 621-102 (TSC2-deficient); test: relative viability vs DMSO; higher = less cytotoxic; settings: serum: 10% FBS, 72 h
[2] = system: 621-103 (TSC2-rescued); test: as above; settings: serum: 10% FBS, 72 h
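Further: immortalized renal angiomyolipoma cells stably carrying empty vector or TSC2, dosed in 384-well plates in DMEM, viability normalized to vehicle-treated wells within each plate.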

Row | SMILES | relative viability ([1]; 0.0001 µM) | relative viability ([1]; 0.001 µM) | relative viability ([1]; 0.01 µM) | relative viability ([1]; 0.1 µM) | relative viability ([1]; 1 µM) | relative viability ([1]; 10 µM) | relative viability ([2]; 0.0001 µM) | relative viability ([2]; 0.001 µM) | relative viability ([2]; 0.01 µM) | relative viability ([2]; 0.1 µM) | relative viability ([2]; 1 µM) | relative viability ([2]; 10 µM)
1 | COc1cccc(-c2cc(=O)c3ccccc3o2)c1N | 109 ± 2.8% | 103 ± 3% | 104.2 ± 0.83% | 104 ± 6% | 107.8 ± 0.69% | 109 ± 2.6% | 100 ± 2.6% | 99.7 ± 1.8% | 103 ± 1.9% | 99.8 ± 1.2% | 98.6 ± 2.6% | 97.6 ± 3.2%
2 | COc1cccc(Nc2c(C(N)=O)cnc3c(C)cc(S(=O)(=O)c4cccc(C(=O)N(C)C)c4)cc23)c1 | 105 ± 5% | 102 ± 2.6% | 97.2 ± 5.1% | 104 ± 2.7% | 97.1 ± 0.98% | 95.9 ± 2% | 104 ± 3.4% | 103.1 ± 0.49% | 102 ± 3.5% | 103.2 ± 0.47% | 95.9 ± 3.8% | 93.3 ± 3.2%
3 | COc1ncc(-c2ccc3nccc(-c4ccnnc4)c3c2)cc1NS(=O)(=O)c1ccc(F)cc1F | 80.7 ± 11% | 68.1 ± 1.7% | 59.2 ± 0.65% | 38.9 ± 1.5% | 23.3 ± 2% | 26.3 ± 1.8% | 107 ± 3.9% | 101.89 ± 0.069% | 91 ± 4.4% | 61.4 ± 2.5% | 47.565 ± 0.012% | 41 ± 2.4%
4 | C[C@@H](Oc1cc(-c2cnn(C3CCNCC3)c2)cnc1N)c1c(Cl)ccc(F)c1Cl | 105.6 ± 0.81% | 97.3 ± 6.2% | 104 ± 2.6% | 106 ± 1.4% | 98 ± 2.9% | 10.7 ± 1.4% | 99.34 ± 0.12% | 102.8 ± 0.57% | 102 ± 1.5% | 103 ± 1.6% | 101.6 ± 0.21% | 5.36 ± 0.69%
5 | C[C@@H](Oc1cc(-n2cnc3ccc(CN4CCN(C)CC4)cc32)sc1C(N)=O)c1ccccc1C(F)(F)F | 97.01 ± 0.82% | 88.1 ± 1.3% | 64.5 ± 3.1% | 45.3 ± 0.63% | 40.7 ± 3.1% | 27.1 ± 3.8% | 100 ± 1.7% | 71.9 ± 4.3% | 60.2 ± 0.98% | 48.49 ± 0.29% | 40.7 ± 0.62% | 9.95 ± 0.89%
6 | C[C@@H]1CN(CC(=O)Nc2ccc3c(c2)Cc2cccc(-c4cc(=O)cc(N5CCOCC5)o4)c2S3)C[C@H](C)O1 | 101 ± 1.9% | 96.34 ± 0.66% | 96.06 ± 0.86% | 97.1 ± 2.1% | 97.3 ± 1.5% | 65.9 ± 0.85% | 79.7 ± 1.1% | 86 ± 3.5% | 83 ± 0.38% | 84.6 ± 1% | 77.8 ± 3.1% | 59.4 ± 5.5%
7 | Cc1ccc(CN2CCNCC2)cc1NC(=O)CNc1ccc(F)c(F)c1 | 112 ± 2.2% | 98.3 ± 5.5% | 100.6 ± 0.38% | 104 ± 3.2% | 88 ± 1.4% | 92.96 ± 0.19% | 113 ± 3.6% | 98.9 ± 2% | 108 ± 3.7% | 102 ± 2.5% | 95.4 ± 2.7% | 90.85 ± 0.73%
8 | Cc1cccc(-c2nn3c(c2-c2ccnc4ccc(C(N)=O)cc24)CCC3)n1 | 97.6 ± 7.5% | 87.2 ± 2% | 95.57 ± 0.43% | 109 ± 5.5% | 96 ± 2.2% | 93.9 ± 4.6% | 102.4 ± 0.59% | 93.4 ± 3.5% | 97.8 ± 2.9% | 97.7 ± 2.5% | 99.2 ± 0.91% | 106 ± 1.6%
9 | Cc1ccccc1-n1c(Cn2cnc3c(N)ncnc32)nc2cccc(C)c2c1=O | 108.5 ± 0.61% | 117.2 ± 0.36% | 118 ± 4% | 116.3 ± 0.6% | 101.3 ± 0.42% | 99.9 ± 0.73% | 100.1 ± 0.63% | 100.4 ± 0.26% | 98 ± 1.1% | 100 ± 1.5% | 99.34 ± 0.9% | 96.2 ± 2.4%
10 | Cn1cc(-c2ccc3nnc(C(F)(F)c4ccc5ncccc5c4)n3n2)cn1 | 101 ± 1.6% | 100.8 ± 0.26% | 99.2 ± 1.3% | 95.7 ± 1.9% | 96.8 ± 4.5% | 98.19 ± 0.64% | 102 ± 1.7% | 101 ± 1.4% | 100.6 ± 0.28% | 100.3 ± 0.23% | 100.3 ± 0.95% | 98.25 ± 0.26%
11 | NC1=N[C@@]2(c3cc(NC(=O)c4ccc(F)cn4)ccc3F)COC[C@H]2CS1 | 105 ± 1.8% | 105 ± 1.3% | 105 ± 0.55% | 100 ± 1.3% | 99.9 ± 2% | 96.4 ± 1.9% | 101 ± 4.3% | 101 ± 3.9% | 100 ± 1.9% | 101 ± 2% | 99.2 ± 2.8% | 93.7 ± 1.1%
12 | Nc1nc(Nc2ccc(S(N)(=O)=O)cc2)nn1C(=O)c1c(F)cccc1F | 107 ± 1.5% | 102.5 ± 0.3% | 107 ± 1.8% | 104 ± 1.3% | 97 ± 1.4% | 49.9 ± 5.8% | 98.71 ± 0.9% | 105 ± 2.8% | 106.4 ± 0.39% | 110 ± 4.5% | 93.5 ± 4.2% | 40.01 ± 0.12%
13 | O=C(NOCC(O)CO)c1cc(Br)c(F)c(F)c1Nc1ccc(I)cc1F (configuration not stated) | 105 ± 4.9% | 99.7 ± 2.8% | 105.5 ± 0.56% | 106 ± 1.1% | 100 ± 1.4% | 93.7 ± 1.3% | 96.8 ± 0.31% | 95 ± 3% | 98.9 ± 1.2% | 93.54 ± 0.87% | 93.44 ± 0.33% | 74.3 ± 5.1%
14 | O=C(NOC[C@H](O)CO)c1ccc(F)c(F)c1Nc1ccc(I)cc1F | 98.6 ± 2.5% | 104 ± 4.5% | 106.7 ± 0.59% | 106.2 ± 0.49% | 98.6 ± 1% | 52.32 ± 0.36% | 96.2 ± 1.3% | 98.8 ± 2.7% | 100.2 ± 0.66% | 94.5 ± 0.99% | 87.31 ± 0.23% | 64.6 ± 1.8%
15 | O=C(c1ccc(F)cc1)N1CCC[C@H](c2nc(-c3ccc(F)cc3)no2)C1 | 90.9 ± 4.4% | 89.5 ± 2% | 107 ± 1.4% | 104.7 ± 0.73% | 97.3 ± 4.3% | 89.7 ± 2.8% | 102 ± 2.5% | 97.8 ± 7.7% | 100 ± 3.3% | 103 ± 2.4% | 105 ± 0.68% | 108 ± 4.5%
16 | O=C1NC(=O)/C(=C/c2ccc3nccc(-c4ccncc4)c3c2)S1 | 101 ± 3.6% | 106.8 ± 0.82% | 105 ± 5.2% | 97.8 ± 5.1% | 80.5 ± 5% | 32.8 ± 1.8% | 94.69 ± 0.22% | 101.8 ± 0.76% | 107 ± 2% | 101.5 ± 0.46% | 93.69 ± 0.33% | 33.1 ± 0.64%
17 | O=c1cc(-c2cccc3c2Sc2ccccc2S3)oc(N2CCOCC2)c1 | 101 ± 3% | 99.73 ± 0.79% | 98.3 ± 3.2% | 94.4 ± 1.1% | 100 ± 2.1% | 80.3 ± 0.73% | 78.3 ± 1.3% | 90.23 ± 0.51% | 85 ± 3.9% | 82.9 ± 0.99% | 77.06 ± 0.31% | 69.3 ± 3.3%
18 | O=c1cc(N2CCOCC2)oc2c(-c3ccccc3)cccc12 | 95.6 ± 1.2% | 111 ± 5% | 119.9 ± 0.6% | 113.8 ± 0.48% | 104 ± 1.5% | 80.2 ± 1.1% | 99.7 ± 1.1% | 100.3 ± 0.45% | 99.792 ± 0.068% | 97.55 ± 0.48% | 101.1 ± 0.21% | 65.2 ± 1.9%
19 | OCCn1cc(-c2cnc3nnn(Cc4ccc5ncccc5c4)c3n2)cn1 | 103 ± 2.2% | 98.7 ± 1.2% | 89.7 ± 2.1% | 100 ± 3.4% | 96 ± 2.5% | 93.2 ± 1.2% | 104.7 ± 0.61% | 102 ± 0.94% | 101.9 ± 0.21% | 103 ± 1.6% | 103.2 ± 0.56% | 99.7 ± 2.3%
20 | Oc1ccc([C@@H]2Oc3ccc(O)cc3[C@@H]3CCC[C@@H]32)cc1 | 120.08 ± 0.051% | 124 ± 1.3% | 105 ± 1.5% | 108 ± 2.7% | 113 ± 5.1% | 65.5 ± 4% | 106 ± 1.5% | 101.57 ± 0.083% | 103 ± 1.1% | 106 ± 2.1% | 103.1 ± 0.19% | 66.2 ± 5.5%
21 | c1ccc2c(CCNc3ccc(Nc4ccncc4)cc3)c[nH]c2c1 | 131 ± 2% | 122 ± 2.9% | 119.8 ± 0.41% | 114 ± 1.4% | 110 ± 6.2% | 68.7 ± 4.9% | 113.5 ± 1% | 103 ± 1.1% | 103 ± 1.1% | 106 ± 1.8% | 105 ± 2% | 64.7 ± 3.8%
